Source: patent US20260232847A1, “Nanoparticles For Imaging And Treatment Of Arthritis And Inflammatory Joint Diseases” (Cornell University, priority 2023, published 2026)

Key:
[1] = In vivo joint clearance pharmacokinetics after intraarticular injection, longitudinal IVIS fluorescence imaging; parameters: species or system rat
Method: Animals. All procedures were performed according to protocols approved by the Institutional Animal Care and Use Committee (IACUC) or Cornell University. Sprague Dawley male rats ([…], 300-325 g; Charles River Laboratories, Wilmington, MA) were housed in pairs under a standard 12 h light/dark cycle starting at 6:00 a.m. The animals were allowed to move freely in their cages, fed a low-fluorescence commercial diet (Teklad 2914) and were allowed access to tap water.
Animal Study Design. Rats were randomly assigned to (1) unoperated controls (naïve) and (2) those receiving ipsilateral anterior cruciate ligament transection (ACLT) and contralateral sham to model arthritic pathological joint changes (FIGS. 9A and B). Naïve rats were further split into pilot studies for intraarticular bilateral injection of Cy5 free fluorophore (n=2), unilateral C′ Dot injection with contralateral saline (n=4), and bilateral C′ Dot injection (n=4). Animals that received bilateral surgery were further split into groups where one group received no intraarticular injections (n=4) and one group received bilateral intraarticular injection of C′ Dots one week post-operatively (n=6). Selected animals underwent ACLT surgery on a randomly assigned knee via an open surgical approach under 2.5% isoflurane anesthesia at 1 L/min O2, as previously described. Complete transection of the ACL was confirmed by a cranial drawer test. A single dose of Ethiqa XR (slow release buprenorphine) was administered subcutaneously at 0.65 mg/kg just prior to ACLT surgery. The animals could ambulate, eat, and drink ad libitum after surgery.
Intraarticular injection. Under 3% isoflurane anesthesia, the lower abdominal region (distal to sternum) including the front and back of both stifles was clipped to remove fur and sterilized with three alternating wipes of iodine and ethanol. […]
In vivo longitudinal fluorescence imaging. Longitudinal fluorescence images of rats receiving Cy5 or C′ Dot intraarticular injections were recorded using the In Vivo Imaging System (IVIS) Kinetic (Perkin Elmer; Waltham, MA) over one week for Cy5 injection at the following timepoints: 0, 1, 2, 4, 8, 12, 24, 48, and 72 h, and at 7 d (FIG. 9S3). […] Each week, rat fur was clipped as described above and animal weights were recorded. […] Fluorescence was set at 640 nm/680 nm excitation/emission optimized for Cyanine-5 and C′ Dots.
IVIS image analysis. […] Total Radiant Efficiency (TRE) (area sum of ((p/sec/cm^2/sr)/(ρW/cm^2))) was recorded for each stifle at each time point for the duration of imaging. Average TRE from saline-injected stifles (n=4) was subtracted from all stifle TRE measurements as tissue fluorescence background. […]

[2] = in vivo; cited from earlier work
[3] = in vitro; cited from earlier work

CN1C(=CC=CC=CC2=[N+](CCCCCC(=O)O)c3ccc(S(=O)(=O)O)cc3C2(C)C)C(C)(C)c2cc(S(=O)(=O)[O-])ccc21 [Cy5, Sulfo-Cyanine-5-carboxylic acid]
time constant τ, single exponential decay ([1]; naïve knees, Eq 2): 0.6 h | time after which fluorescence was undetectable ([1]; naïve rat knees): 3 days | time of signal peak ([1]; naïve rat knees, Cy5 dye injection): 0 h | half-life t1/2,1 ([1]; t1/2=ln(2)*τ): 0.4 h

anakinra: established DMARD, anakinra (Kineret)
half-life in the knee / joint half-life [2]: 24 h | duration of anti-inflammatory effects [3]: 2 days
